Results reported in patent US20200138921A1, “METHODS OF PREVENTING AND TREATING DISEASES CHARACTERIZED BY SYNAPTIC DYSFUNCTION AND NEURODEGENERATION INCLUDING ALZHEIMER'S DISEASE” (The Trustees of Columbia University in the City of New York, priority 2017, published 2020).

Experiments:
EphB2 = test: Western blot of surface expressed EphB2 in hippocampal neurons; type: cell-based, rat; details: oAβ treated
Experimental: Enriched primary rat hippocampal neurons, cultured for 21 days in vitro, were treated with synthetic soluble oligomeric Aβ1-42 (hereinafter “oAβ”) for 24 hours. No cell death was detected under these conditions (data not shown).
Since Ube3A is also expressed in astrocytes (Grier et al. 2015), it was determined whether Ube3A levels were also altered in these cells.

Ephexin-1 = test: Levels or activities of Ephexin-1 in hippocampal neurons; type: cell-based, rat; details: hippocampal neurons treated with oAβ (results not shown)

oAβ: synthetic soluble oligomeric Aβ1-42
levels of surface expressed EphB2 protein (EphB2): decrease
levels or activities of Ephexin-1 (Ephexin-1): no observation of any differences
